Measurements from US8563516B2, “Foxp3 peptide vaccine” (OncoTherapy Science, Inc., priority 2007, dated 2013).
Entries after “also recorded” stand apart in the source; their conditions may differ. Ends that are not written are not given here.

Legend:
[1] = test system: 4T1 breast cancer cells; experiment: In vivo antitumor effects of vaccination, 4T1 tumor; design: species or system BALB/c mice; conditions: 4T1 s.c. day 0, vaccination day 3 and 10, compared with control mice, FIG. 6
Experimental: 1×10^5 4T1 breast cancer cell lines were injected into BALB/c mice on day 0. IFA-conjugated with Foxp3-252_h (-open circle-), Foxp3-252_m (-solid square-), no peptide (-solid triangle-) was injected on day 3 and 10. As control of normal tumor growth, non-vaccinated mice (-x-) were also prepared in this assay.
4T1 cells (1×10^5 per mouse) were injected s.c. into the right flank of BALB/c mice on day 0. Vaccination was done on days 3 and 10 using hFoxp3-252 (KLSAMQAHL: SEQ ID NO: 17) or mFoxp3-252 (KLGAMQAHL: SEQ ID NO: […]) IFA-conjugated peptides.
To examine the antitumor effects with peptide vaccination targeted Foxp3, in vivo therapeutic setting was attempted by using 4T1 tumor cells and BALB/c mice. The 4T1 breast cancer cells were injected s.c. into BALB/c mice on day 0, and then vaccination was done on these mice 3 and 10 days after the tumor challenge.

[2] = test system: BALB/c mice; experiment: Immunogenicity of epitope peptides in BALB/c mice (IFN-gamma ELISPOT on splenocytes); assay type: in vivo
Experimental: IFA-conjugated peptide or IFA only were injected s.c. into BALB/c mice on day 0 and 7. On day 14, splenocytes of vaccinated mice were harvested and used as responder cells. 1×10^4 RLmale1 cells pulsed corresponding peptide (solid square), or no peptide (open square) were used as stimulator cells for IFN-gamma ELISPOT assay. Vaccination using Foxp3-252_h (A) and Foxp3-252_m (B) were performed into five mice (M1-M5) and IFA without any peptide injection were performed into three mice (N1-N3) as control in each assay.
For priming the peptide-specific CTLs, immunization was given using 100 mcl vaccine mixture, which contains 50 mcl HLA-A24 restricted peptide and 50 mcl IFA per mouse. The vaccine was injected s.c. into the right flank of mice for the first immunization on day 0 and in the left flank for the second on the day 7. On day 14, splenocytes from vaccinated mice were used as the responder cells, and RLmale1 cells pulsed with or without peptides were used as the stimulator cells for IFN-gamma ELISPOT assay.
To evaluate the immunogenicity of Foxp3-9-252 peptide for BALB/c mice, immunization with human Foxp3-9-252 peptide (Foxp3-252_h; KLSAMQAHL)(SEQ ID NO: 17) and mouse Foxp3-9-252 peptide (Foxp3-252_m; KLGAMQAHL) (SEQ ID NO: 89) were performed, respectively. After second injection of peptide, peptide specific CTL activity was determined by IFN-gamma ELISPOT assay (FIG. 5).

[3] = test system: peptide-pulsed A24LCL cells or T2 cells; experiment: In vitro CTL induction by peptide-loaded dendritic cells (summary statements); assay type: cell-based, human; conditions: for specific CTL activity: against peptide pulsed target cells; for establishment of CTLs: in vitro stimulation of T-cells by DCs loaded with peptide
Text: Confirmation of CTL inducibility can be accomplished by inducing antigen-presenting cells carrying human MHC antigens (for example, B-lymphocytes, macrophages, and dendritic cells), or more specifically dendritic cells derived from human peripheral blood mononuclear leukocytes, and after stimulation with the peptides, mixing with CD8-positive cells, and then measuring the IFN-gamma produced and released by CTL against the target cells. As the reaction system, transgenic animals that have been produced to express a human HLA antigen (for example, those described in BenMohamed L, Krishnan R, Longmate J, Auge C, Low L, Primus J, Diamond D J, Hum Immunol 61(8): 764-79, 2000 August, Related Articles, Books, Linkout Induction of CTL response by a minimal epitope vaccine in HLA A*0201/DR1 transgenic mice: dependence on HLA class II restricted T(H) response) can be used. For example, the target cells can be radiolabeled with ^51Cr and such, and cytotoxic activity can be calculated from radioactivity released from the target cells. Alternatively, it can be examined by measuring IFN-gamma produced and released by CTL in the presence of antigen-presenting cells that carry immobilized peptides, and visualizing the inhibition zone on the media using anti-IFN-gamma monoclonal antibodies.
(§1) Monocyte-derived dendritic cells (DCs) were used as antigen-presenting cells (APCs) to induce CTL responses against peptides presented on HLA. DCs were generated in vitro as described elsewhere (Horiguchi S. et al. Cancer Res. 59:2950-6). Specifically, peripheral blood mononuclear cells (PBMCs) isolated from normal volunteer (HLA-A*2402 and/or HLA-A*0201) with Ficoll-Plaque (Pharmacia) solution were separated by adherence to plastic tissue culture dish (Becton Dickinson) so as to enrich them for the monocyte fraction. The monocyte-enriched population was cultured in the presence of 1000 U/ml of GM-CSF (R&D System) and 1000 U/ml of IL-4 (R&D System) in AIM-V medium (Invitrogen) containing 2% heat-inactivated autologous serum (AS). After 7 days in the culture, the cytokine-generated DCs were pulsed with 20 mcg/ml of the synthesized peptides in the presence of 3 mcg/ml of beta2-microglobulin for 4 hrs at 20 degrees C. in AIM-V medium. These peptide-pulsed DCs were then inactivated with mitomycin C (MMC) (30 mcg/ml for 30 mins) and mixed at a 1:20 ratio with autologous CD8+ T cells, obtained by positive selection with CD8 Positive Isolation Kit (Dynal). These cultures were set up in 48-well plates (Corning); each well contained 1.5×10^4 peptide-pulsed DCs, 3×10^5 CD8+ T cells and 10 ng/ml of IL-7 (R&D System) in 0.5 ml of AIM-V/2% AS. Three days later, these cultures were supplemented with IL-2 (CHIRON) to a final concentration of 20 IU/ml. On day 7 and 14, the T cells were further restimulated with the peptide-pulsed autologous DCs. The DCs were prepared each time through the same procedure described above. CTL activity was tested against peptide-pulsed A24LCL cells or T2 cells after the 3rd round of peptide stimulation on day 21.
(§2) To examine the specific CTL activity, IFN-gamma ELISPOT assay and IFN-gamma ELISA were performed. Briefly, peptide-pulsed A24-LCL, T2 cell (1×10^4/well) or the cells endogenously expressing Foxp3 and HLA molecule was prepared as a stimulator cells. Cultured CTL lines in 48 wells were used as a responder cells. IFN-gamma ELISPOT assay and IFN-gamma ELISA were performed under manufacture procedure.

[4] = test system: 293T that transfected both Foxp3 and HLA-A02; experiment: Specific CTL activity against target cells expressing Foxp3 and HLA-A02; assay type: cell-based, human
Experimental: as §2
The established CTL clone raised against these peptides were examined for their ability to recognize the target cells endogenously expressing Foxp3 and HLA-A*24 or 02. Specific CTL activity against 293T transfected both full length of Foxp3 gene and HLA-A*24 or 02 molecule, which is specific model for the target cells endogenously express Foxp3 and HLA-A*24 or 02, was tested using the CTL lines raised by Foxp3-A02-9-390 (SEQ ID NO: 15) and Foxp3-A02-9-252 (SEQ ID NO: 17) as effector cells. […] Furthermore, these peptides were epitope peptides, which can utilize vaccine targeting Foxp3 expressed T-regs.

[5] = test system: peptide-pulsed T2 cells; experiment: IFN-gamma ELISPOT on CTLs induced with HLA-A0201 restricted Foxp3 peptides; assay type: cell-based, human; conditions: FIG. 2A/2B/2C
Text: as §1, §2
Resulting CTLs showing detectable specific CTL activity were shown in FIG. 2A, FIG. 2B and FIG. 2C when performed by IFN-gamma ELISPOT assay.

[6] = test system: peptide-pulsed T2 cells; experiment: IFN-gamma ELISA on expanded CTL lines, HLA-A02 peptides; assay type: cell-based, human; conditions: expanded cells of positive wells, FIG. 3A-D, 3F
Experimental: (§3) CTLs were expanded in culture using a similar method as reported by Riddell, et al. (Walter et al., N Engl J Med 333(16): 1038-44, 1995; Riddell et al., Nat Med 2(2): 216-23, 1996 February). A total of 5×10^4 CTLs were resuspended in 25 ml of AIM-V/5% AS with 2 kinds of human B-lymphoblastoid cell lines, inactivated with MMC, in the presence of 40 ng/ml of anti-CD3 monoclonal antibody (Pharmingen). One day after initiating the cultures, 120 IU/ml of IL-2 were added to the cultures. The cultures were fed with fresh AIM-V/5% AS containing 30 IU/ml of IL-2 on days 5, 8 and 11.
as §2
(§4) These cells in the positive wells were expanded and performed IFN-gamma ELISA assay.

[7] = test system: peptide-pulsed A24LCL cells; experiment: IFN-gamma ELISA on expanded CTL lines, HLA-A24 peptides; assay type: cell-based, human; conditions: expanded cells of positive wells, FIG. 3E, 3G
Experimental: as §3, §2, §4

[8] = test system: peptide-pulsed A24LCL cells; experiment: IFN-gamma ELISPOT on CTLs induced with HLA-A2402 restricted Foxp3 peptides; assay type: cell-based, human; conditions: FIG. 1A/1B
Text: as §1, §2
CTLs for the peptides derived from Foxp3 protein were generated according to the method described in the “Materials and Methods”, supra.

Substance | tumor growth / antitumor effect ([1]; listed as Foxp3-252_m) | tumor growth / antitumor effect ([1]; listed as mFoxp3-252) | mice with peptide specific CTL response ([2]; IFA-conjugated peptide s.c. day 0 and 7, splenocytes day 14, RLmale1 stimulator cells, FIG. 5) | induction of epitope specific CTLs in vivo ([2]; vaccination of BALB/c mice, discussion) | specific CTL activity [3] | establishment of CTLs [3] | specific CTL activity of CTL lines raised by peptide ([4]; against 293T transfected with both Foxp3 and HLA-A02, FIG. 4A/4B) | specific CTL activity against controls ([4]; controls of FIG. 4A/4B) | IFN-gamma production of CTLs stimulated with peptide, compared with the control [5] | IFN-gamma production of CTL lines stimulated with peptide, compared with the control [6] | IFN-gamma production of CTL lines stimulated with peptide, compared with the control [7] | IFN-gamma production of CTLs stimulated with peptide, compared with the control [8]
KLGAMQAHL (peptide vaccine) [SEQ ID NO 88, mouse Foxp3-9-252 peptide] | tumor growth apparently reduced; also recorded: Significant difference of tumor growth suppression | obviously anti-tumor effects | one of five | could induce epitope specific CTLs in vivo |  |  |  |  |  |  |  | 
SLHKCFVRV (peptide vaccine) [SEQ ID NO 15] |  |  |  |  | significant and specific CTL activity | CTLs were successfully established | high specific CTL activity | did not show significant specific CTL activity | potent IFN-gamma production | potent IFN-gamma production |  | 
SLNPmPPSQL (chain 1 SLNPMPPSQL; chain 2 SLNPMPPSQL; not fully specified (some residues)) [SEQ ID NO 74] |  |  |  |  | significant and specific CTL activity | CTLs were successfully established |  |  |  |  | potent IFN-gamma production | potent IFN-gamma production
ALLQDRPHFM (peptide vaccine) [SEQ ID NO 27] |  |  |  |  | significant and specific CTL activity | CTLs were successfully established |  |  | potent IFN-gamma production | potent IFN-gamma production |  | 
GPLPhLQALL (GPLPHLQALL; not fully specified (residue 5); printed as GPLPhLQALL) [SEQ ID NO 67] |  |  |  |  | significant and specific CTL activity | CTLs were successfully established |  |  |  |  | potent IFN-gamma production | potent IFN-gamma production
